In brackets after ≈: the same amount, converted by molar mass.
What follows are compounds tested on Entamoeba histolytica (assay: Tested for antiamoebic activity against HK-9 strain of Entamoeba histolytica).
Format: functional, organism-based

IC50 | SMILES
0.31 µg/mL (≈ 1.6 µM) | C/C(=N\NC(N)=S)c1ccccn1
0.42 µg/mL (≈ 2.15 µM) | c1ccc(-c2nc3ccccc3[nH]2)nc1
0.4 µg/mL (≈ 1.33 µM) | C/C(=N\N=C(/S)SCc1ccccc1)c1ccccn1
0.38 µg/mL (≈ 1.69 µM) | CS/C(S)=N/N=C(\C)c1ccccn1
0.33 µg/mL (≈ 1.93 µM) | Cc1ncc([N+](=O)[O-])n1CCO [METRONIDAZOLE]
